In experiment [1] the test system is Male mice (CFLP strain). Kind of experiment: Hotplate test. The class given is in vivo. To be noted: subcutaneous; test repeated 15 mins. after treatment; as free peptide where appropriate; NE = no effect. The source says:
(§1) (1) Both the hotplate test (Woolfe and MacDonald, J. Pharmacol. Exp. Ther. 80: 300, 1944) and the irritant-induced writhing (stretch) test (Vander Wende and Margolin, Fed. Proc. 15: 494, 1956) are standard in the art for the investigation of analgesic activity. Whereas it is believed that the pain in the latter can be ameliorated either centrally or peripherally, it is thought that that induced in the hotplate test is affected only at the central level.
Male mice (CFLP strain, Hacking and Churchill) were individually placed in a copper-bottomed perspex box suspended in a water bath at 55° C. and observed for signs of discomfort such as shaking or licking the paws, the reaction time (up to a maximum of 30 secs.) being recorded. Groups of five animals then received either a test compound or saline vehicle (0.85%) control by subcutaneous injection, the test being repeated at 15 mins. after treatment. The ED50 figures for the test compounds were calculated from the number of animals having a posttreatment reaction time which was twice the pretreatment figure.

Experiment [2] has as its system female CD1 mice. Kind of experiment: Irritant-induced writhing test, phenylbenzoquinone (PBQ). Format: in vivo. The settings on record: Mus musculus, po, 0.5 h; p.o.; *test compound administered 30 min. prior to PBQ; read-out: (B) Writhing PBQ ED50 p.o.
Source text: as §1
(ii) Phenylbenzoquinone (PBQ). This test was carried out in a parallel manner to that employing acetic acid, except that the period over which the writhing/stretching movements were counted began 10 mins. after administration of the PBQ irritant, the latter being given at a dosage of 2.5 mg/kg and in a dose volume of 10 ml/kg. The ED50 figures for the test compounds were calculated, using linear regression analysis, as the dose in the presence of which only half the number of writhes/stretches was induced compared with the controls.
Background: In writhing tests, fewer writhes than in controls are read as antinociception.

Experimental findings from US4540682A, “Pharmaceutical peptides, preparation, use and intermediates” (Burroughs Wellcome Co., priority 1983, dated 1985) are described below.

Each structure is given as a SMILES string.

The ED50 is the dose at which the effect has come halfway, by size or by number of responders.

`COc1ccc2c(c1)c(CC(=O)O)c(C)n2C(=O)c1ccc(Cl)cc1` [Indomethacin]: the “(A) Hotplate ED50” value in experiment [1] was “NE @ 100”. On to `CC(C)=CCN1CCC2(C)c3cc(O)ccc3CC1C2C` (stereo not drawn) [Pentazocine], for which the “(A) Hotplate ED50” value in experiment [1] is reported as “NE @ 100”. Regarding `CN1CC[C@]23c4c5ccc(O)c4O[C@H]2[C@@H](O)C=C[C@H]3[C@H]1C5` [Morphine], in experiment [2], the ED50 turned out to be 3.5 mg/kg.
